According to ChEMBL document CHEMBL4138105, “LL-37-derived short antimicrobial peptide KR-12-a5 and its d-amino acid substituted analogs with cell selectivity, anti-biofilm activity, synergistic effect with conventional antibiotics, and anti-inflammatory activity” (Eur J Med Chem, 2017):
≈ marks a conversion by molar mass, not a printed value. Calls of active or inactive are those of the source. The calls are words filed in the database; no cut-off is given here.

Tests used:
[1] = tested on: Staphylococcus aureus; assay: Antibacterial activity against Staphylococcus aureus KCTC 1621 in presence of 2.5 mM CaCl2 after 24 hrs; format: functional; conditions: KCTC 1621, 24 h
[2] = tested on: Pseudomonas aeruginosa; assay: Antibacterial activity against multidrug-resistant Pseudomonas aeruginosa CCARM 2109 after 24 hrs; format: functional; conditions: CCARM 2109, 24 h
[3] = tested on: Staphylococcus aureus; assay: Antibacterial activity against Staphylococcus aureus KCTC 1621 in presence of 4.5 mM KCl after 24 hrs; format: functional; conditions: KCTC 1621, 24 h
[4] = tested on: RAW264.7; assay: Anti-inflammatory activity in mouse RAW264.7 cells assessed as reduction in LPS-induced iNOS mRNA expression at 5 uM after 6 hrs by RT-PCR analysis; format: functional, cell-based
[5] = Binding affinity to EYPC/cholesterol small unilamellar vesicles assessed as intrinsic tryptophan acrylamide quenching constant by fluorescence assay (reference value: 5.95 to 7.56 /M)
[6] = tested on: Escherichia coli; assay: Antibacterial activity against Escherichia coli KCTC 1682 in presence of 20% human serum after 24 hrs; format: functional; conditions: KCTC 1682, 24 h
[7] = tested on: Staphylococcus aureus; assay: Antibacterial activity against Staphylococcus aureus KCTC 1621 assessed as cell membrane disruption at 2 times MIC within 4 mins by Sytox Green dye based fluorescence spectrophotometer assay; format: functional, organism-based
[8] = tested on: RAW264.7; assay: Anti-inflammatory activity in mouse RAW264.7 cells assessed as reduction in LPS-induced IL-6 production at 10 to 20 uM preincubated for 1 hr followed by LPS stimulation measured after 6 hrs by ELISA; format: functional, cell-based
[9] = tested on: RAW264.7; assay: Anti-inflammatory activity in mouse RAW264.7 cells assessed as reduction in LPS-induced MCP-1 production at 10 to 20 uM preincubated for 1 hr followed by LPS stimulation measured after 6 hrs by ELISA; format: functional, cell-based
[10] = tested on: RAW264.7; assay: Cytotoxicity against mouse RAW264.7 cells up to 128 uM after 48 hrs by MTT assay; format: cell-based; conditions: raw264.7, 48 h
[11] = tested on: Staphylococcus aureus; assay: Antibacterial activity against methicillin resistant Staphylococcus aureus CCARM 3089 after 24 hrs; format: functional; conditions: CCARM 3089, 24 h
[12] = tested on: Staphylococcus aureus; assay: Potency index, ratio of LL-37 MIC to compound MIC for methicillin resistant Staphylococcus aureus CCARM 3089; format: functional
[13] = tested on: Staphylococcus aureus; assay: Antibacterial activity against Staphylococcus aureus KCTC 1621 in presence of 150 mM NaCl after 24 hrs; format: functional; conditions: KCTC 1621, 24 h
[14] = Hemolytic activity in human RBC at 96 uM after 1 hr relative to control; format: ADME, cell-based, Erythrocyte; conditions: red blood cells (RBC, erythrocytes), read-out: Activity

| SMILES | MIC [1] [µM] | MIC [2] [µM] | MIC [3] [µM] | Activity [4] | KSV [5] [M⁻¹] | MIC [6] [µM] | Activity [7] | Activity [8] | Activity [9] | Activity [10] | MIC [11] [µM] | Ratio [12] | MIC [13] [µM] | hemolysis at 1 h, 96 µM [14] [%] |
| --- | --- | --- | --- | --- | --- | --- | --- | --- | --- | --- | --- | --- | --- | --- |
| CC[C@H](C)[C@H](NC(=O)[C@H](CCCNC(=N)N)NC(=O)[C@@H](N)CCCCN)C(=O)N[C@H](C(=O)N[C@@H](CCCCN)C(=O)N[C@@H](CC(C)C)C(=O)N[C@H](CC(C)C)C(=O)N[C@@H](CC(C)C)C(=O)N[C@@H](CCCCN)C(=O)N[C@@H](Cc1c[nH]c2ccccc12)C(=O)N[C@@H](CC(C)C)C(=O)N[C@@H](CCCNC(=N)N)C(N)=O)C(C)C | 4 | 4 (≈ 6.26 µg/mL) | 2 | Active | 2.98 | 4 | Active | Active | Active | Non-Toxic | 4 (≈ 6.26 µg/mL) | 2 - 4 | 4 | – |
| CC[C@H](C)[C@H](NC(=O)[C@H](CCCNC(=N)N)NC(=O)[C@@H](N)CCCCN)C(=O)N[C@H](C(=O)N[C@@H](CCCCN)C(=O)N[C@H](CC(C)C)C(=O)N[C@H](C(=O)N[C@@H](CC(C)C)C(=O)N[C@@H](CCCCN)C(=O)N[C@@H](Cc1c[nH]c2ccccc12)C(=O)N[C@@H](CC(C)C)C(=O)N[C@@H](CCCNC(=N)N)C(N)=O)[C@@H](C)CC)C(C)C | 8 | 4 (≈ 6.26 µg/mL) | 2 | Active | 2.9 | 8 | Active | Active | Active | Non-Toxic | 4 (≈ 6.26 µg/mL) | 2 - 4 | 8 | – |
| CC[C@H](C)[C@H](NC(=O)[C@H](CC(C)C)NC(=O)[C@H](CCCCN)NC(=O)[C@@H](NC(=O)[C@@H](NC(=O)[C@H](CCCNC(=N)N)NC(=O)[C@@H](N)CCCCN)[C@@H](C)CC)C(C)C)C(=O)N[C@@H](CC(C)C)C(=O)N[C@@H](CCCCN)C(=O)N[C@@H](Cc1c[nH]c2ccccc12)C(=O)N[C@@H](CC(C)C)C(=O)N[C@@H](CCCNC(=N)N)C(N)=O | 2 | 8 (≈ 12.5 µg/mL) | 2 | Active | 1.66 | 8 | Active | Active | Active | Non-Toxic | 4 (≈ 6.26 µg/mL) | 2 - 4 | 2 | 50 |
| CC[C@H](C)[C@H](NC(=O)[C@H](CC(C)C)NC(=O)[C@@H](CCCCN)NC(=O)[C@@H](NC(=O)[C@@H](NC(=O)[C@H](CCCNC(=N)N)NC(=O)[C@@H](N)CCCCN)[C@@H](C)CC)C(C)C)C(=O)N[C@@H](CC(C)C)C(=O)N[C@@H](CCCCN)C(=O)N[C@@H](Cc1c[nH]c2ccccc12)C(=O)N[C@@H](CC(C)C)C(=O)N[C@@H](CCCNC(=N)N)C(N)=O | 4 | 4 (≈ 6.26 µg/mL) | 2 | Active | 2.21 | 4 | Active | Active | Active | Non-Toxic | 4 (≈ 6.26 µg/mL) | 2 - 4 | 2 | – |
